We go through 5 compounds from patent US20010053772A1, “Aza analogues of alkyl lysophospholipids exert immunomodulatory effects” (priority 2000, published 2001).

For experiment [1], the system named is TNF-α. As to conditions: cited from earlier work.
The test system of experiment [2] is TNF-α. The experiment is described as follows: TNF-α secretion by human PBM, ELISA of supernatants. As to conditions: for effect on BN52207 induced secretion of TNF-α: PBM 18 hours with BN52207 (5 μg/ml), emetine (1 μg/ml), cycloheximide (5 μg/ml). Format: cell-based. As to the method: Also referring to FIG. 2, the AALP analogues, are therein shown to have immunoregulatory properties. The effect of AALP on the secretion of TNF-α, IL-1β, IL-6, and IL-10 cytokines by both resting and LPS and IFN-γ activated human peripheral blood derived monocytes. Human PBM were incubated for 18 hours at 37° C. in the absence or in the presence of different concentrations of AALP analogues. The cell-free supernatants were harvested and clarified by centrifugation and assessed for the presence of TNF-α, IL-1β, and IL-6 by Enzyme Linked Immunosorbant Assay (ELISA). For TNF-α, there was stimulation of secretion by all compounds at concentrations >0.6 μg/ml and up to 10 μg/ml. […] Similar findings were also obtained for IL-1β. There was no significant difference in the levels of stimulated TNF-α and IL-1β among the five AALP compounds. In contrast to TNF-α and IL-1β, there was no significant stimulation of IL-6 above background levels upon stimulation by any of the five AALP analogues. However, there was significant inhibition of IL-6 secretion at 10 μg/ml and the levels were below the spontaneous secretion of IL-6.
As a result of the similarity of results of the five AALP on PBM, BN52207 was selected to conduct the following experiments. However, it is to be understood that any other AALP analogue may be used to obtain a similar result. Now referring to FIG. 3, human PBM were incubated for 18 hours at 37° C. in the presence or absence of different concentration of BN52207. The PBM were left untreated or treated with IFN-γ (500 U/ml) or LPS (1 μg/ml) added at the initiation of the culture. The supernatants were harvested, clarified by centrifugation, and stored at −70° C. The levels of TNF-α with IFN-γ (FIG. 3A), LPS (FIG. 3B), or BN+LPS (FIG. 3C) activated PBM were assessed by ELISA.
BN52207 potentiated the secretion of TNF-α from IFN-γ-activated PBM and LPS-activated PBM. […] Now referring to FIG. 4, to confirm de novo synthesis of TNF-α mRNA PBM were treated with protein synthesis inhibitors. PBM were incubated for 18 hours with BN52207 (5 μg/ml) in the absence or presence of LPS (1 μg/ml), LPS (1 μg/ml) plus pentoxifylline (50 μg/ml), emetine (1 μg/ml), and cycloheximide (5 μg/ml). The cell-free supernatants were collected and clarified by centrifugation and the level of TNF-α in the supernatants was assessed by ELISA.
Now referring to FIGS. 8 A, B, and C, the kinetics of induction/inhibition of cytokine secretion by AALP were examined. […]
Human peripheral blood was obtained from normal volunteers as per HSPC guidelines of UCLA. […] The adherent cells prepared by this procedure were primarily monocytes (>90%) as determined by esterase staining and flow cytometry using markers for monocytes, T cells, B cells, and NK cells. […]
For orientation: In an ELISA, binding on a coated surface is turned into a signal by an enzyme label.

As for `CC1C(=O)OC2C(O)C34C5CC(C(C)(C)C)C36C(OC(=O)C6O)OC4(C(=O)O5)C12O` (centres unmarked) [BN52021], in the experiment with TNF-α [1], the “effect on TNF-α augmented production by PAF in monocytes” value was “blocks”.
As for `C[C@@H]1C[C@@H]([C@H](O)CC2CC(=O)NC(=O)C2)C(=O)[C@@H](C)C1` [CHX, cycloheximide], in the experiment on TNF-α [2] (FIG. 4), the “effect on BN52207 induced secretion of TNF-α” value is reported as “inhibited”.
For `CC[C@H]1CN2CCc3cc(OC)c(OC)cc3[C@@H]2C[C@@H]1C[C@H]1NCCc2cc(OC)c(OC)cc21` [emetine], in the experiment on TNF-α [2] (FIG. 4), the “effect on BN52207 induced secretion of TNF-α” value is “inhibited”.
For `CC(=O)CCCCn1c(=O)c2c(ncn2C)n(C)c1=O` [pentoxifylline], in the experiment on TNF-α [2] (PBM 18 hours, BN52207 (5 μg/ml) + LPS (1 μg/ml) + pentoxifylline (50 μg/ml), FIG. 4), the “effect on BN enhanced stimulation of TNF-α secretion by LPS stimulated PBM” value was “inhibited”.
Consider “IFN-γ: recombinant interferon-γ, a gift from Genentech”, for which the “TNF-α secretion on stimulation of PBM with IFN-γ alone” value in the experiment with TNF-α [2] (IFN-γ (500 U/ml), 18 hours, FIG. 3A) is “results in the secretion of TNF-α”.
